Test results: BindingDB's records for doi:10.7270/Q29G5K5D (Cc_Pmlsc, 2007)

Molecular target: T1, Dual specificity protein phosphatase 1 (Homo sapiens, UniProt P28562)
T1 sequence (P28562 whole entry): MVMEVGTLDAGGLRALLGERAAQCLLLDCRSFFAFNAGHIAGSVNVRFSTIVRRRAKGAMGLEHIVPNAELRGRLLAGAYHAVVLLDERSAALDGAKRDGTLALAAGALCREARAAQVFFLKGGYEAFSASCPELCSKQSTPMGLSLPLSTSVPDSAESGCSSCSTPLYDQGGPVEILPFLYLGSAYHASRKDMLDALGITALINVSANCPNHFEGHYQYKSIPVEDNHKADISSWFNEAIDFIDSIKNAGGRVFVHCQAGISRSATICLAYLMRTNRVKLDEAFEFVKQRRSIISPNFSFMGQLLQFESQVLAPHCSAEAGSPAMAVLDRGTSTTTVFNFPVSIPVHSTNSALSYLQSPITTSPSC
Test: MKP-1 phosphatase inhibitors, SAR follow-up, biochemical, in vitro (AID 579)
Details: pH 7; 23 °C

| IC50 [µM] | Structure (SMILES) |
| --- | --- |
| 20.6 | Cn1c(N)c(C(=O)COC(=O)c2cc(-c3ccco3)nc3ccccc23)c(=O)n(C)c1=O [2-(2-furanyl)-4-quinolinecarboxylic acid [2-(4-amino-1,3-dimethyl-2,6-dioxo-5-pyrimidinyl)-2-oxoethyl] ester] |
| > 50 | O=C(O)c1cc(C2CC2)nc2ccccc12 [2-cyclopropyl-4-quinolinecarboxylic acid] |
| 50 | CC(C)Cn1c(N)c(C(=O)COC(=O)c2cc(-c3ccco3)nc3ccccc23)c(=O)n(C)c1=O [2-(2-furanyl)-4-quinolinecarboxylic acid [2-[4-amino-1-methyl-3-(2-methylpropyl)-2,6-dioxo-5-pyrimidinyl]-2-oxoethyl] ester] |
